# Test results from patent US12497396B2, “Nitrogen-containing heterocyclic derivatives, method therefor and application therefor as inhibitors of KRAS G12C for the treatment of cancers” (SHANGHAI HANSOH BIOMEDICAL CO., LTD., priority 2019, dated 2025).
# Read-outs that look alike come from different tables or passages of the source.
# Key:
# [1] = system: human lung cancer NCI-H358 cell xenograft; experiment: In vivo pharmacodynamics on human lung cancer NCI-H358 cell xenograft tumor model; design: species or system BALB/c nude mice
# Protocol: • BALB/c nude mice, 6-8 weeks old, female, purchased from Shanghai Xipuer-Bikai Experimental Animal Co., Ltd. 6.3.2 Cell Culture and Cell Suspension Preparation • 1) MiaPaca-2 cells were taken out from the cell bank and resuscitated with DMEM medium (DMEM+10% FBS), the resuscitated cells were placed in a cell culture flask (labeled with cell type, date, name of cultured person, etc.) and cultured in a CO2 incubator (incubator temperature was 37° C., CO2 concentration was 5%) (the method of resuscitating NCI-H358 cells was the same as MiaPaca-2 cells in test embodiment 5, and the culture medium was changed to RPMI-1640 medium). • 2) Passage was conducted every three to five days, and the cells was continued to be cultured in CO2 incubator after passage. The process was repeated until the cell count meets the in vivo pharmacodynamic requirements. • 3) MiaPaca-2 cells were collected and counted by automatic cell counter, according to the counting results, the cells were re-suspended with PBS and Matrigel (ratio was 1:1) to make cell suspension (cell density was 5×10^7/mL), then placed in a ice box for use (NCI-H358 cells were re-suspended with PBS without adding Matrigel, cell density was 1×10^8/mL). 6.3.3 Sample Preparation: • 1) Solvent: solvent (0.5% CMC-Na+1% Tween 80), storage condition: 4° C.
# 0.5 g of CMC-Na was weighted, dissolved in ddH2O, then 1.0 mL of Tween 80 was added and the mixture was stirred to mix well, and the volume was finally set to 100 mL. • 2) Compound to be tested (10 mg/kg) was prepared:
# 8.42 mg of AMG510 compound was weighted, 8.260 mL of solvent was added, a uniform solution was obtained by ultrasound, vortexing and stirring.
# 7.81 mg of embodiment compound 165-1 was weighted, 7.654 mL of solvent was added, a uniform solution was obtained by ultrasound, vortexing and stirring.
# • 1) Before inoculation, nude mice were labeled with disposable universal ear tags of rats and mice; • 2) when inoculating, the cell suspension was mixed well, 0.1-1 mL cell suspension was extracted with a 1 mL syringe, bubbles were removed, and then the syringe was put on an ice bag for later use; • 3) the nude mice was held with left hand, the right back of nude mice near the right shoulder (inoculation site) was disinfected with 75% alcohol, and inoculation was started after 30 seconds; • 4) the experimental nude mice were inoculated in turn (each mouse was inoculated with 0.1 mL of cell suspension); 6.3.4 Tumor-Bearing Mouse were Measured, Grouped, and Administered: • 1) According to the tumor growth, the tumor was measured on the 18th day after inoculation, and the tumor size was calculated. tumor volume (mm^3)=length (mm)×width (mm)×width (mm)/2 Tumor volume calculation: • 2) The tumor-bearing mice were grouped according to their body weight and tumor size using a randomized grouping method. • 3) According to the grouping results, the administration of the test drug was started (administration method: oral administration; administration dose: 10 mg/kg; administration volume: 10 mL/kg; administration frequency: once a day; administration period: 21 days; solvents: 0.5% CMC/1% Tween 80). • 4) The tumor was measured and weighed twice a week after the test drug was started to be given. • 5) After the experiment, all animals were euthanized. • 6) Data was processed with software such as Excel. […]
# [2] = Plasma stability, rat plasma; type: in vitro ADME; conditions: rat plasma, 37° C.
# Protocol: (§1) Animal or human whole blood was collected, then the blood was put into a test tube containing anticoagulant, centrifuged at 3500 rpm for 10 min, and the upper layer of pale yellow plasma was collected. • 2), 10 μM of tested compound (m/M/V=C)
# (§2) The compound was weighed, the stock solution was prepared with DMSO and the working solution was prepared with 100 mM phosphate buffer. • 3), 10 μM of positive control (1) Propantheline (Propantheline Mr=449.4 Da)
# (§3) • 1) 285 μL of plasma and 15 μL of 10 μM compound (tested compound) were added in turn in a 96-well plate, and incubated at 37° C. • 2) 40 μL was taken out at 0, 15, 30, 60, 90, 120 min, respectively, and 160 μL of acetonitrile termination solution containing internal standard was added. • 3) After centrifugation (3500 rpm, 10 min), 50 μL of supernatant was taken out, and then diluted with 50 μL DDH2O and injected to LC-MS/MS.
# (§4) • Instrument: Shimadzu LC-20 AD • Chromatographic column: phenomenex Gemiu® C18 (50*4.6 mm, 5 μM particle size); • mobile phase: A: acetonitrile, B: 0.1% formic acid solution […], 2.0-2.1 min: 90% A→5% A; flow rate: 0.8 mL/min; running time: 5.0 min; injection volume: 5 μL.
# (§5) • Instrument: API4000 Liquid Chromatography-Mass Spectrometry, AB, USA; • the ion source was electrospray ionization source (ESI); • the temperature of dry gas (N2) was 500° C.; • electrospray voltage was 5500V; • the detection method was positive ion detection; • the scanning mode was selective response monitoring (MRM). • the scanning time was 0.1 s.
# [3] = Plasma stability, dog plasma; type: in vitro ADME; conditions: dog plasma, 37° C.
# Protocol: as §1, §2, §3, §4, §5
# in vitro = in vitro ADME
# Protocol: as §1, §2, §3, §4, §5
# [4] = system: Mia PaCa-2 cells (KRAS G12C mutant cell line); experiment: Inhibition of Mia PaCa-2 cell proliferation (CellTiter-Glo, 72 h); type: cell-based, human
# Description: (§6) As a preferred embodiment of the present disclosure, the detection method of NCI-H358 cell proliferation inhibitory activity and Mia PaCa-2 cell proliferation inhibitory activity is as follows: through cell culture, adding different concentrations of compound solutions to the cultured cells, continuing the culture for a period of time and measuring the cell proliferation; • further, the method of cell culture is: adjusting the cells to a suitable cell concentration with complete medium and spreading the cell suspension in well plates for culture; preferably, the culture conditions are 37° C., 5% CO2 incubator overnight; preferably, the cell suspension is spread in 96-well plates, 48-well plates, 24-well plates, 12-well plates or 6-well plates, more preferably 96-well plates; preferably, the suitable cell concentration is 1500-4000 cells/well, with 90 μL of cell suspension added to each well; • further, the compound solution is prepared with DMSO and may be further diluted with medium; preferably, the compound solution has a concentration gradient starting from 100 μM at 4-fold dilution, more preferably starting from 30 μM at 4-fold dilution, most preferably starting from 10 μM at 4-fold dilution; • further, the volume of the compound solution or solvent added to each well is 1-10 μL, preferably 10 μL; • further, after adding the compound solution, the conditions for continuing the culture are 37° C., 5% CO2 incubator; preferably, the culture time is 24-72 h, more preferably 72 h; • further, the method for measuring cell proliferation is MTT, CCK8, CellTiter-Glo; preferably the method is CellTiter-Glo; • further, the cell proliferation is read using a microplate reader, more preferably a BioTek Synergy H1 microplate reader.
# (§7) When NCI-H358 or Mia PaCa-2 cells were cultured to the appropriate fusion level, the NCI-H358 or Mia PaCa-2 cells were collected, and the cells were adjusted to the appropriate cell concentration using a complete medium, and the cell suspension was spread in a 96-well plate, 90 μL per well, and placed in a 37° C., 5% CO2 incubator overnight; and compound solutions of different concentrations were prepared using DMSO and culture medium; and a solvent control was set, the compound solution was added to a 96-well plate, 10 μL per well, at 37° C. in a 5% CO2 incubator for 72 hours; CellTiter-Glo solution was added thereto and the mixture was mixed well by shaking, incubated for 10 min in the dark, and read by BioTek Synergy H1 microplate reader.
# (§8) The luminescence signal values were used to calculate the inhibition rate, the concentration and the inhibition rate were fitted to a nonlinear regression curve using Graphpad Prism software, then the IC50 value was obtained.
# human KRAS G12C protein = target: T1, human KRAS G12C protein (Homo sapiens, UniProt P01116, G12C); experiment: Thermal shift: melting temperature of KRAS G12C protein; type: binding; conditions: for Tm (° C.): KRAS G12C protein 5.37 μM with compound 10 μM, 1 hour incubation
# T1 construct: purchased Beijing SinoBiological Co., Ltd. 12259-H07E2
# Protocol: A solution containing […] (pH 7.5), 1 mM DTT, 5×SYPRO Orange and 150 mM NaCl was prepared as the experimental buffer, and a final concentration of 5.37 μM human KRAS G12C protein was added thereto. […] After incubating at room temperature in the dark for 1 hour, the PCR tube was put into the PCR instrument, QuantStudio Software v1.3 was opened, and the melting temperature of KRAS G12C protein in different treatment groups was detected by melt curve function (heating from 25° C. to 95° C., 0.03° C./s). The experimental data file of PCR instrument was imported into thermal shift software, and the melting temperature (Tm) of each treatment group was obtained, and the change value of melting temperature (Δ Tm) was obtained by subtracting the Tm of DMSO solvent control group.
# [5] = system: NCI-H358 cells (KRAS G12C mutant cell line); experiment: Inhibition of NCI-H358 cell proliferation (CellTiter-Glo, 72 h); type: cell-based, human
# Description: as §6, §7, §8
# in vivo = conditions: male, Balb/c, mouse, po, 10 mg/kg
# Protocol: 5 g of Hydroxyethyl cellulose (HEC, CMC-Na, viscosity: 800-1200 Cps) was weighed, dissolved in 1000 mL of purified water, and 10 g of Tween 80 was added. The mixture was mixed well to form a clear solution.
# The embodiment compounds were weighed and added into 4-mL glass bottles, respectively, 2.4 mL of the solution was added, and ultrasound was performed for 10 minutes to obtain a colorless clear solution with a concentration of 1 mg/mL.
# Balb/C mice, males; PO, after overnight fasting, respectively, at a dose of 10 mg/kg, administered in a volume of 10 mL/kg.
# Blood samples were collected before administration and 0.083 h, 0.25 h, 0.5 h, 1 h, 2 h, 4 h, 6 h and 8 h after administration, the blood was placed in EDTA-2K tube, centrifuged at 4° C. 6000 rpm for 6 min to separate plasma, and stored at −80° C.; food was consumed 4 hours after drug administration.
# [6] = compound 10 μM, Tm minus Tm of DMSO solvent control
Structure (SMILES),Tm (° C.) (human KRAS G12C protein),Residual rate (%) 0 min [2],Residual rate (%) 15 min [2],Residual rate (%) 30 min [2],Residual rate (%) 60 min [2],Residual rate (%) 120 min [2],Residual rate (%) 0 min [3],Residual rate (%) 15 min [3],Residual rate (%) 30 min [3],Residual rate (%) 60 min [3],Residual rate (%) 120 min [3],IC50 ([4]; Homo sapiens),ΔTm at 10 µM (human KRAS G12C protein; [6]),IC50 ([5]; Homo sapiens),other results
"C=CC(=O)N1CCN(c2nc(=O)n(-c3c(C)ccnc3C(C)C)c3nc(-c4c(O)cccc4F)c(F)cc23)[C@@H](C)C1 [AMG-510, reference compound]",–,–,–,–,–,–,–,–,–,–,–,–,–,–,"TGI (%) Day 15 ([1]; Day 15, 10 mpk oral once a day): 38.02%; tumor volume (mm^3, Mean ± SD) Day 15 ([1]; Day 15, 10 mpk oral once a day): 324 ± 204 mm^3; ΔT/ΔC(%) Day 15 ([1]; Day 15, 10 mpk oral once a day): 61.98%; tumor volume (mm^3, Mean ± SD) Day 0 ([1]; baseline Day 0, 10 mpk oral once a day): 202 ± 72 mm^3"
"C=CC(=O)N1CCN(c2nc(=O)n(-c3c(C)ccnc3C(C)C)c3nc(-c4c(O)cccc4F)c(F)cc23)[C@@H](C)C1 [AMG 510, reference compound]",–,100.00%,100.85%,93.03%,77.54%,56.77%,100.00%,98.88%,101.14%,93.43%,91.92%,–,–,–,"Residual rate (%) 0 min (in vitro; human, 0.5 μM): 100.00%; Residual rate (%) 15 min (in vitro; human, 0.5 μM): 93.77%; Residual rate (%) 30 min (in vitro; human, 0.5 μM): 85.72%; Residual rate (%) 60 min (in vitro; human, 0.5 μM): 82.51%; Residual rate (%) 120 min (in vitro; human, 0.5 μM): 64.44%; Residual rate (%) 0 min (in vitro; mouse plasma, 37° C.): 100.00%; Residual rate (%) 15 min (in vitro; mouse plasma, 37° C.): 97.50%; Residual rate (%) 30 min (in vitro; mouse plasma, 37° C.): 82.58%; Residual rate (%) 60 min (in vitro; mouse plasma, 37° C.): 81.82%; Residual rate (%) 120 min (in vitro; mouse plasma, 37° C.): 63.23%"
"C=CC(=O)N1C[C@H](C)N(c2nc(=O)n(-c3c(SC)ccnc3C(C)C)c3nc(-c4c(O)cccc4F)c(F)cc23)C[C@H]1C [Embodiment 114, 4-((2S, 5R)-4-acryloyl-2,5-dimethylpiperazin-1-yl)-6-fluoro-7-(2-fluoro-6-hydroxyphenyl)-1-(2-isopropyl-4-(methylthio)pyridin-3-yl) pyrido [2,3-d] pyrimidin-2 (1H)-one]",57.2 °C,–,–,–,–,–,–,–,–,–,–,43 nM,8.5 °C,50 nM,AUC(0-inf) (in vivo): 1290 ng·h/mL; Cmax (in vivo): 1530 ng/mL; MRT (in vivo): 42 min; Tmax (in vivo): 15 min; half-life (in vivo): 36 min
"CC[C@H](C)C(=O)O[C@H]1C[C@@H](C)C=C2C=C[C@H](C)[C@H](CC[C@@H]3C[C@@H](O)CC(=O)O3)[C@H]21 [Lovastatin, reference compound]",–,100.00%,21.15%,1.77%,0.36%,0.30%,100.00%,95.25%,95.45%,75.66%,36.25%,–,–,–,t1/2 [2]: 6.69 min; t1/2 [3]: 80.22 min

# Now from value to compound, other results behind:
Tm (° C.) (human KRAS G12C protein),Structure (SMILES),Residual rate (%) 0 min [2],Residual rate (%) 15 min [2],Residual rate (%) 30 min [2],Residual rate (%) 60 min [2],Residual rate (%) 120 min [2],Residual rate (%) 0 min [3],Residual rate (%) 15 min [3],Residual rate (%) 30 min [3],Residual rate (%) 60 min [3],Residual rate (%) 120 min [3],IC50 ([4]; Homo sapiens),ΔTm at 10 µM (human KRAS G12C protein; [6]),IC50 ([5]; Homo sapiens),other results
60.2 °C,"C=CC(=O)N1CCN(c2nc(=O)n(-c3c(SC)ccnc3C(C)C)c3nc(-c4c(O)cccc4F)c(F)cc23)[C@@H](C)C1 [Embodiment 60, 4-((S)-4-acryloyl-2-methylpiperazin-1-yl)-6-fluoro-7-(2-fluoro-6-hydroxyphenyl)-1-(2-isopropyl-4-(methylthio)pyridin-3-yl)pyrido[2,3-d]pyrimidin-2(1H)-one]",–,–,–,–,–,–,–,–,–,–,60 nM,11.6 °C,40 nM,–
61.2 °C,C=CC(=O)N1CCN(c2nc(=O)n(-c3c(SC)ccnc3C(C)C)c3nc(-c4c(F)cccc4SC)c(F)cc23)[C@@H](C)C1 [Embodiment 131],–,–,–,–,–,–,–,–,–,–,–,–,–,IC50 [4]: 47 nM; ΔTm (° C.) (human KRAS G12C protein; [6]): 11.7 °C; IC50 [5]: 48 nM
